Experimental findings from patent US20240343704A1, “HALO-SUBSTITUTED AMINO PYRIDINE COMPOUNDS AS INHIBITORS OF THE HAEMATOPOIETIC PROGENITOR KINASE 1 (HPK1)” (priority 2021, published 2024) are described below.

In the assay the target is T1, Recombinant (1-346) HPK1 (h) (Homo sapiens, UniProt Q92918).
T1 construct: Recombinant (1-346) HPK1 (h) is incubated with 8 mM MOPS pH 7.0
T1 sequence (Q92918 1-346): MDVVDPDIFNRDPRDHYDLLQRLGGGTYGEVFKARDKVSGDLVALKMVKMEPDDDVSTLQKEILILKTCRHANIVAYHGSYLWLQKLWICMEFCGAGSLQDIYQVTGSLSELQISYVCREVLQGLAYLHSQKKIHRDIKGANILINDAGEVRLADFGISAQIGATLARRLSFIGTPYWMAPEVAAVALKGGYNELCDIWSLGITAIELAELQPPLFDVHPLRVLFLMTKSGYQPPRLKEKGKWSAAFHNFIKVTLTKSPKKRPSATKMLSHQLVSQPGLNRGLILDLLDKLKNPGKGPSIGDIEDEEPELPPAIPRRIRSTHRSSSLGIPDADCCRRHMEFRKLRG
The assay is described as follows: HPK1 Human STE Kinase Enzymatic Radiometric Assay. The assay is classed as biochemical. Particulars: read-out: HPK1 IC50 nM Range*. How it is done: A stock solution of 10 mM of test compound is prepared in DMSO. The compound plate was prepared by 3-fold and 9-point serial dilutions. […] The reaction is initiated by The addition of the Mg/ATP mix. After incubation for 40 minutes at RT, the reaction is stopped by the addition of phosphoric acid to a concentration of 0.5%.
As to `C[C@@H]1CN(c2ccc(-c3cc(-c4cc5c(cc4F)C(=O)NCC5)c(N)nc3F)cc2CN(C)C)CCO1` [I-576, (R)-6-(2-amino-5-(3-((dimethylamino)methyl)-4-(2-methylmorpholino)phenyl)-6-fluoropyridin-3-yl)-7-fluoro-3,4-dihydroisoquinolin-1(2H)-one], the IC50 was 0.1 to 10 nM.
In the case of `Cc1c[nH]c(=O)c2cc(F)c(-c3cc(-c4ccc(N5CCN(C(C)C)CC5)cc4)c(F)nc3N)cc12` [I-577, 6-(2-amino-6-fluoro-5-(4-(4-isopropylpiperazin-1-yl)phenyl)pyridin-3-yl)-7-fluoro-4-methylisoquinolin-1(2H)-one], the IC50 is 0.1 to 10 nM.
In the case of `Nc1nc(F)c(-c2ccc(N3CCOCC3)c(CN3CCC3)n2)cc1-c1ccc2c(c1)CCNC2=O` [I-578, 6-(6′-amino-6-(azetidin-1-ylmethyl)-2-fluoro-5-morpholino-[2,3′-bipyridin]-5′-yl)-3,4-dihydroisoquinolin-1(2H)-one] it was 0.1 to 10 nM.
The same measure for `Nc1nc(F)c(-c2ccc(N3CCOCC3)c(CN3CCC3)n2)cc1-c1cc2c(cc1F)C(=O)NCC2` [I-579]: 0.1 to 10 nM; for `CCN(C)Cc1nc(-c2cc(-c3cc4c(cc3F)C(=O)NCC4)c(N)nc2F)ccc1N1CCOCC1` [I-581, 6-(6′-amino-6-((ethyl(methyl)amino)methyl)-2′-fluoro-5-morpholino-[2,3′-bipyridin]-5′-yl)-7-fluoro-3,4-dihydroisoquinolin-1(2H)-one]: 0.1 to 10 nM; for `COCCN(C)Cc1nc(-c2cc(-c3ccc4c(c3)CCNC4=O)c(N)nc2F)ccc1N1CCOCC1` [I-582, 6-(6′-amino-2′-fluoro-6-(((2-methoxyethyl)(methyl)amino)methyl)-5-morpholino-[2,3′-bipyridin]-5′-yl)-3,4-dihydroisoquinolin-1(2H)-one]: 0.1 to 10 nM.
As to `COCCN(C)Cc1nc(-c2cc(-c3cc4c(cc3F)C(=O)NCC4)c(N)nc2F)ccc1N1CCOCC1` [I-583, 6-(6′-amino-2′-fluoro-6-(((2-methoxyethyl)(methyl)amino)methyl)-5-morpholino-[2,3′-bipyridin]-5′-yl)-7-fluoro-3,4-dihydroisoquinolin-1(2H)-one], the IC50 lay within 0.1 to 10 nM.
In the case of `CO[C@H]1CCN(Cc2nc(-c3cc(-c4ccc5c(c4)CCNC5=O)c(N)nc3F)ccc2N2CCOCC2)C1` [I-584, (S)-6-(6′-amino-2-fluoro-6-((3-methoxypyrrolidin-1-yl)methyl)-5-morpholino-[2,3′-bipyridin]-5′-yl)-3,4-dihydroisoquinolin-1(2H)-one] it was 0.1 to 10 nM; in that of `CO[C@H]1CCN(Cc2nc(-c3cc(-c4cc5c(cc4F)C(=O)NCC5)c(N)nc3F)ccc2N2CCOCC2)C1` [I-585, (S)-6-(6′-amino-2-fluoro-6-((3-methoxypyrrolidin-1-yl)methyl)-5-morpholino-[2,3′-bipyridin]-5′-yl)-7-fluoro-3,4-dihydroisoquinolin-1(2H)-one], 0.1 to 10 nM.
On to `Cc1c[nH]c(=O)c2ccc(-c3cc(-c4ccc(C5CCOCC5)cc4)c(F)nc3N)cc12` [I-586, 6-(2-amino-6-fluoro-5-(4-(tetrahydro-2H-pyran-4-yl)phenyl)pyridin-3-yl)-4-methylisoquinolin-1(2H)-one], for which the half-inhibitory concentration (IC50) is 11 to 100 nM.
In the case of `Cc1cc2cc(-c3cc(-c4ccc(N5CCN(C(C)C)CC5)cc4)c(F)nc3N)c(F)cc2c(=O)[nH]1` [I-587, 6-(2-amino-6-fluoro-5-(4-(4-isopropylpiperazin-1-yl)phenyl)pyridin-3-yl)-7-fluoro-3-methylisoquinolin-1(2H)-one] it was 11 to 100 nM; in that of `Cc1c[nH]c(=O)c2ccc(-c3cc(-c4ccc(N5CCOCC5)c(CN(C)C)n4)c(F)nc3N)cc12` [I-588, 6-(6′-amino-6-((dimethylamino)methyl)-2′-fluoro-5-morpholino-[2,3′-bipyridin]-5′-yl)-4-methylisoquinolin-1(2H)-one], 0.1 to 10 nM; in that of `CN(C)Cc1nc(-c2cc(-c3ccc4c(=O)[nH]cc(F)c4c3)c(N)nc2F)ccc1N1CCOCC1` [I-589, 6-(6′-amino-6-((dimethylamino)methyl)-2′-fluoro-5-morpholino-[2,3′-bipyridin]-5′-yl)-4-fluoroisoquinolin-1(2H)-one], 0.1 to 10 nM.
As to `CC(C)(C)OC(=O)N1CCN(c2ccc(-c3cc(-c4ccc5c(c4)CCNC5=O)c(N)nc3F)nc2)CC1` [I-590, tert-butyl4-(6′-amino-2′-fluoro-5′-(1-oxo-1,2,3,4-tetrahydroisoquinolin-6-yl)-[2,3′-bipyridin]-5-yl) piperazine-1-carboxylate], the IC50 fell in the range of 0.1 to 10 nM.
In the case of `CC(=O)N1CCN(c2ccc(-c3cc(-c4cc5c(cc4F)C(=O)NCC5)c(N)nc3F)nc2)CC1` [I-592, 6-(5-(4-acetylpiperazin-1-yl)-6′-amino-2′-fluoro-[2,3′-bipyridin]-5′-yl)-7-fluoro-3,4-dihydroisoquinolin-1(2H)-one], the IC50 lay in the range of 0.1 to 10 nM.
In the case of `Nc1nc(F)c(-c2ccc(N3CCN(CCCC(F)F)CC3)cn2)cc1-c1ccc2c(c1)CCNC2=O` [I-593, 6-(6′-amino-5-(4-(4,4-difluorobutyl)piperazin-1-yl)-2′-fluoro-[2,3′-bipyridin]-5′-yl)-3,4-dihydroisoquinolin-1(2H)-one] it was 0.1 to 10 nM.
The same measure for `CN(C)Cc1cccc(-c2cc(-c3ccc4c(c3)CCNC4=O)c(N)nc2F)c1` [I-594, 6-(2-amino-5-(3-((dimethylamino)methyl)phenyl)-6-fluoropyridin-3-yl)-3,4-dihydroisoquinolin-1(2H)-one]: 11 to 100 nM.
In the case of `Cc1nc2cc(-c3cc(-c4ccc(N5C[C@@H](C)O[C@@H](C)C5)c(CN(C)C)c4)c(F)nc3N)ccc2c(=O)[nH]1` [I-595, 7-(2-amino-5-(3-((dimethylamino)methyl)-4-((2R,6S)-2,6-dimethylmorpholino)phenyl)-6-fluoropyridin-3-yl)-2-methylquinazolin-4(3H)-one] it was 11 to 100 nM; in that of `C[C@@H]1CN(c2ccc(-c3cc(-c4cc(F)c5c(c4)CCNC5=O)c(N)nc3F)cc2CN(C)C)C[C@H](C)O1` [I-596, 6-(2-amino-5-(3-((dimethylamino)methyl)-4-((2R,6S)-2,6-dimethylmorpholino)phenyl)-6-fluoropyridin-3-yl)-8-fluoro-3,4-dihydroisoquinolin-1(2H)-one], 11 to 100 nM.
Turning to `C[C@@H]1CN(c2ccc(-c3cc(-c4cc5c(cc4F)C(=O)NCC5)c(N)nc3F)cc2CN(C)C)C[C@H](C)O1` [I-597, 6-(2-amino-5-(3-((dimethylamino)methyl)-4-((2R,6S)-2,6-dimethylmorpholino)phenyl)-6-fluoropyridin-3-yl)-7-fluoro-3,4-dihydroisoquinolin-1(2H)-one], the IC50 was in the range of 11 to 100 nM.
The same measure for `C[C@H]1CN(c2ccc(-c3cc(-c4ccc5c(c4)CCNC5=O)c(N)nc3F)cc2CN2CCC2)CCO1` [I-598, (S)-6-(2-amino-5-(3-(azetidin-1-ylmethyl)-4-(2-methylmorpholino)phenyl)-6-fluoropyridin-3-yl)-3,4-dihydroisoquinolin-1(2H)-one]: 11 to 100 nM.
Consider `C[C@H]1CN(c2ccc(-c3cc(-c4cc5c(cc4F)C(=O)NCC5)c(N)nc3F)cc2CN2CCC2)CCO1` [I-599, (S)-6-(2-amino-5-(3-(azetidin-1-ylmethyl)-4-(2-methylmorpholino)phenyl)-6-fluoropyridin-3-yl)-7-fluoro-3,4-dihydroisoquinolin-1(2H)-one], for which the IC50 was in the range of 11 to 100 nM.
In the case of `CN(C)Cc1nc(-c2cc(-c3ccc4c(c3)CCNC4=O)c(N)nc2F)ccc1C1CCOCC1` [I-600, 6-(6′-amino-6-((dimethylamino)methyl)-2′-fluoro-5-(tetrahydro-2H-pyran-4-yl)-[2,3′-bipyridin]-5′-yl)-3,4-dihydroisoquinolin-1(2H)-one] it was 0.1 to 10 nM; in that of `CN(C)Cc1nc(-c2cc(-c3cc4c(cc3F)C(=O)NCC4)c(N)nc2F)ccc1C1CCOCC1` [I-601, 6-(6′-amino-6-((dimethylamino)methyl)-2′-fluoro-5-(tetrahydro-2H-pyran-4-yl)-[2,3′-bipyridin]-5′-yl)-7-fluoro-3,4-dihydroisoquinolin-1(2H)-one], 0.1 to 10 nM; in that of `Nc1nc(F)c(-c2ccc(C3CCOCC3)c(CN3CCC3)n2)cc1-c1cc2c(cc1F)C(=O)NCC2` [I-602, 6-(6′-amino-6-(azetidin-1-ylmethyl)-2′-fluoro-5-(tetrahydro-2H-pyran-4-yl)-[2,3′-bipyridin]-5′-yl)-7-fluoro-3,4-dihydroisoquinolin-1(2H)-one], 0.1 to 10 nM.
The same measure for `CCN(C)Cc1nc(-c2cc(-c3ccc4c(c3)CCNC4=O)c(N)nc2F)ccc1C1CCOCC1` [I-603, 6-(6′-amino-6-((ethyl(methyl)amino)methyl)-2′-fluoro-5-(tetrahydro-2H-pyran-4-yl)-[2,3′-bipyridin]-5′-yl)-3,4-dihydroisoquinolin-1(2H)-one]: 0.1 to 10 nM.
Regarding `CCN(C)Cc1nc(-c2cc(-c3cc4c(cc3F)C(=O)NCC4)c(N)nc2F)ccc1C1CCOCC1` [I-604, 6-(6′-amino-6-((ethyl(methyl)amino)methyl)-2′-fluoro-5-(tetrahydro-2H-pyran-4-yl)-[2,3′-bipyridin]-5′-yl)-7-fluoro-3,4-dihydroisoquinolin-1(2H)-one], the half-maximal inhibitory concentration (IC50) lay in the range of 0.1 to 10 nM.
With `Nc1nc(F)c(-c2ccc(C3CCOCC3)c(CN3CCC3)n2)cc1-c1ccc2c(c1)CCNC2=O` [I-605, 6-(6′-amino-6-(azetidin-1-ylmethyl)-2′-fluoro-5-(tetrahydro-2H-pyran-4-yl)-[2,3′-bipyridin]-5′-yl)-3,4-dihydroisoquinolin-1(2H)-one], the IC50 lay within 0.1 to 10 nM.

A word on the IC50: it is the concentration at which inhibition is half-maximal.
